According to US12545659B2, “IRAK degraders and uses thereof” (Kymera Therapeutics, Inc., priority 2019, dated 2026):

Molecular target: T1, IRAK4 (Homo sapiens, UniProt Q9NWZ3)
T1 construct: endogenous in cells; host or cells: OCI-LY10
T1 sequence (Q9NWZ3 1-460): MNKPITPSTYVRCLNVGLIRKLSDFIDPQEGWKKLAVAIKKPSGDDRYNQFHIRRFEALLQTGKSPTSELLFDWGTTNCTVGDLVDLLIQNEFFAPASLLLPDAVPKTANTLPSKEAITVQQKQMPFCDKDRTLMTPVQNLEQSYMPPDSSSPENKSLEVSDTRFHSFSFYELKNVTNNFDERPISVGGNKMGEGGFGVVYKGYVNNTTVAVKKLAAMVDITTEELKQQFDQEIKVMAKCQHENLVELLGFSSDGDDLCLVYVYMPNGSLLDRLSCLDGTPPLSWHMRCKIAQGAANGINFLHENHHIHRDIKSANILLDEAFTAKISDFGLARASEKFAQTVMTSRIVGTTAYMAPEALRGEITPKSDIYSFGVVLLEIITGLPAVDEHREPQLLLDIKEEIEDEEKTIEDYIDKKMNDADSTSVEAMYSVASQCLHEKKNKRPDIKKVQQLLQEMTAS
Assay: IRAK4 MSD Degradation in OCI-LY10
Format: cell-based
Conditions: OCI-LY10 cells, 4 hrs incubation, read-out: IRAK4 degradation in OCI-LY10 at 4 hrs: DC50
How it was run: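 OCI-LY10 cells treated with 8-dose, 1:3 dilution series (top final 1 to 10 μM) for 4 to 24 h at 37 °C, 5% CO2. Lysate IRAK4 quantified by MSD sandwich immunoassay (mouse 2H9 capture, rabbit Y279 detection, SULFO-TAG anti-rabbit); DC50 from three-parameter logistic fit.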

| SMILES | DC50 |
| --- | --- |
| Cn1c(=O)n(C2CCC(=O)NC2=O)c2cccc(CCC3CCN(C[C@H]4CC[C@H](n5cc6cc(NC(=O)c7cccc(C(F)(F)F)n7)c(C(F)F)cc6n5)CC4)CC3)c21 (some centres unmarked) [I-94] | < 50 nM |
| COc1cc2nn([C@H]3CC[C@H](CN4CCC(CCCc5ccc6c(c5)n(C)c(=O)n6C5CCC(=O)NC5=O)CC4)CC3)cc2cc1NC(=O)c1cccc(C(F)(F)F)n1 (some centres unmarked) [I-145] | 50 to 100 nM |
| COc1cc2nn([C@H]3CC[C@H](CNc4cccc5c4n(C)c(=O)n5C4CCC(=O)NC4=O)CC3)cc2cc1NC(=O)c1cccc(C(F)(F)F)n1 (some centres unmarked) [I-150] | 500 to 1000 nM |
| COc1cc2nn([C@H]3CC[C@H](CN4CCC(CCNc5cccc6c5n(C)c(=O)n6C5CCC(=O)NC5=O)CC4)CC3)cc2cc1NC(=O)c1ccc(F)c(C)n1 (some centres unmarked) [I-144] | < 50 nM |
| Cn1c(=O)n(C2CCC(=O)NC2=O)c2cccc(CC3CC4(CCN(C[C@H]5CC[C@H](n6cc7cc(NC(=O)c8cccc(C(F)(F)F)n8)c(C(C)(C)O)cc7n6)CC5)CC4)C3)c21 (some centres unmarked) [I-56] | < 50 nM |
| COc1cc2nn([C@H]3CC[C@H](CN4CC(c5ccc6c(c5)n(C)c(=O)n6C5CCC(=O)NC5=O)C4)CC3)cc2cc1NC(=O)c1cccc(C(C)(C)F)n1 (some centres unmarked) [I-98] | < 50 nM |
| CN(C[C@H]1CC[C@H](n2ncc3cc(NC(=O)c4cccc(C(F)(F)F)n4)c(C(C)(C)O)cc32)CC1)C1CCN(Cc2cccc3c2n(C)c(=O)n3C2CCC(=O)NC2=O)CC1 (some centres unmarked) [I-34] | 500 to 1000 nM |
| Cn1c(=O)n(C2CCC(=O)NC2=O)c2cccc(CCN3CC4(CCN(C[C@H]5CC[C@H](n6cc7cc(NC(=O)c8cccc(C(F)(F)F)n8)c(C(C)(C)O)cc7n6)CC5)CC4)C3)c21 (some centres unmarked) [I-55] | < 50 nM |
| Cn1c(=O)n(C2CCC(=O)NC2=O)c2cccc(C[C@H]3C[C@@]4(CC[C@@H](N(C)C[C@H]5CC[C@H](n6cc7cc(NC(=O)c8cccc(C(F)(F)F)n8)c(C(F)F)cc7n6)CC5)CC4)C3)c21 (some centres unmarked) [I-155] | < 50 nM |
| CN(CCCC#Cc1ccc2c(c1)n(C)c(=O)n2C1CCC(=O)NC1=O)C[C@H]1CC[C@H](n2cc3cc(NC(=O)c4cccc(C(F)(F)F)n4)c(C(C)(C)O)cc3n2)CC1 (some centres unmarked) [I-67, N-(2-((1r,4r)-4-(((5-(1-(2,6-dioxopiperidin-3-yl)-3-methyl-2-oxo-2,3-dihydro-1H-benzo[d]imidazol-5-yl)pent-4-yn-1-yl)(methyl)amino)methyl)cyclohexyl)-6-(2-hydroxypropan-2-yl)-2H-indazol-5-yl)-6-(trifluoromethyl)picolinamide] | < 50 nM |
| COc1cc2nn([C@H]3CC[C@H](CN(C)C4CCC5(CC4)CC(Cc4cccc6c4n(C)c(=O)n6C4CCC(=O)NC4=O)C5)CC3)cc2cc1NC(=O)c1cccc(C(F)(F)F)n1 (some centres unmarked) [I-117] | 50 to 100 nM |
| Cn1c(=O)n(C2CCC(=O)NC2=O)c2cccc(C3CN(C[C@H]4CC[C@H](n5cc6cc(NC(=O)c7cccc(C(C)(C)F)n7)c(C(F)F)cc6n5)CC4)C3)c21 (some centres unmarked) [I-113] | 50 to 100 nM |
| Cn1c(=O)n(C2CCC(=O)NC2=O)c2cccc(CCN3C[C@H]4CC[C@@H](C3)N4CC[C@H]3CC[C@H](n4cc5cc(NC(=O)c6cccc(C(F)(F)F)n6)c(C(C)(C)O)cc5n4)CC3)c21 (some centres unmarked) [I-97] | < 50 nM |
| CN(C[C@H]1CC[C@H](n2cc3cc(NC(=O)c4cccc(C(F)(F)F)n4)c(C(F)F)cc3n2)CC1)C1CCN(c2ccc3c(c2)n(C)c(=O)n3C2CCC(=O)NC2=O)CC1 (some centres unmarked) [I-106] | < 50 nM |

Further lines, results first:

| DC50 | SMILES |
| --- | --- |
| < 50 nM | Cc1nc(C(=O)Nc2cc3cn([C@H]4CC[C@H](CN5CCC6(CC5)CC(CCc5cccc7c5n(C)c(=O)n7C5CCC(=O)NC5=O)C6)CC4)nc3cc2C(C)(C)O)ccc1F (some centres unmarked) [I-206] |
| < 50 nM | Cn1c(=O)n(C2CCC(=O)NC2=O)c2cccc(CCC3CCN(C[C@H]4CC[C@H](n5cc6cc(NC(=O)c7cccc(C(F)(F)F)n7)c(C(C)(C)O)cc6n5)CC4)CC3)c21 (some centres unmarked) [I-265] |
| < 50 nM | CN(C[C@H]1CC[C@H](n2cc3cc(NC(=O)c4cccc(C(F)(F)F)n4)c(C(F)F)cc3n2)CC1)C1CCN(c2cccc3c2n(C)c(=O)n3C2CCC(=O)NC2=O)CC1 (some centres unmarked) [I-168] |
| 50 to 100 nM | Cn1c(=O)n(C2CCC(=O)NC2=O)c2cccc(N3[C@@H]4CC[C@H]3CN(C[C@H]3CC[C@H](n5cc6cc(NC(=O)c7cccc(C(F)(F)F)n7)c(C(C)(C)O)cc6n5)CC3)C4)c21 (some centres unmarked) [I-285] |
| < 50 nM | CN(C[C@H]1CC[C@H](n2cc3cc(NC(=O)c4cccc(C(F)(F)F)n4)c(N4C[C@@H]5C[C@H]4CO5)cc3n2)CC1)C1CCN(c2cccc3c2n(C)c(=O)n3C2CCC(=O)NC2=O)CC1 (some centres unmarked) [I-179] |
| < 50 nM | COc1cc2nn([C@H]3CC[C@H](CN4CCC(c5ccc6c(c5)n(C)c(=O)n6C5CCC(=O)NC5=O)CC4)CC3)cc2cc1NC(=O)c1cccc(C(F)(F)F)n1 (some centres unmarked) [I-262] |
| 50 to 100 nM | COc1cc2nn([C@H]3CC[C@H](CN(C)[C@H]4CC[C@]5(CC4)C[C@@H](Cc4cccc6c4n(C)c(=O)n6C4CCC(=O)NC4=O)C5)CC3)cc2cc1NC(=O)c1cccc(C(F)(F)F)n1 (some centres unmarked) [I-160] |
| 50 to 100 nM | CN(CCCO[C@H]1C[C@H](Cc2cccc3c2n(C)c(=O)n3C2CCC(=O)NC2=O)C1)C[C@H]1CC[C@H](n2cc3cc(NC(=O)c4cccc(C(F)(F)F)n4)c(C(F)F)cc3n2)CC1 (some centres unmarked) [I-205] |
| < 50 nM | COc1cc2nn([C@H]3CC[C@H](CN4CCC(CCc5cccc6c5n(C)c(=O)n6C5CCC(=O)NC5=O)CC4)CC3)cc2cc1NC(=O)c1cccc(C(F)(F)F)n1 (some centres unmarked) [I-242] |

Same assay, conditions: OCI-LY10 cells, 24 hrs incubation, read-out: IRAK4 degradation in OCI-LY10 at 24 hrs: DC50

| SMILES | DC50 |
| --- | --- |
| COc1cc2nn([C@H]3CC[C@H](CN4CCC5(CC4)CC(CCNc4cccc6c4C(=O)N(C4CCC(=O)NC4=O)C6=O)C5)CC3)cc2cc1NC(=O)c1ccccn1 (some centres unmarked) [I-125] | 50 to 100 nM |
| COc1cc2nn([C@H]3CC[C@H](CN4CCC5(CC4)CC(CNc4cccc6c4C(=O)N([C@@H]4CCC(=O)NC4=O)C6=O)C5)CC3)cc2cc1NC(=O)c1cccc(C(F)(F)F)n1 [I-130, N-[2-[4-[[2-[[[2-[(3R)-2,6-dioxo-3-piperidyl]-1,3-dioxo-isoindolin-4-yl]amino]methyl]-7-azaspiro[3.5]nonan-7-yl]methyl]cyclohexyl]-6-methoxy-indazol-5-yl]-6-(trifluoromethyl)pyridine-2-carboxamide] | 50 to 100 nM |
| COc1cc2nn([C@H]3CC[C@H](CN(C)CCCO[C@H]4C[C@H](Nc5ccc6c(c5)C(=O)N(C5CCC(=O)NC5=O)C6=O)C4)CC3)cc2cc1NC(=O)c1cccc(C(F)(F)F)n1 (some centres unmarked) [I-77] | 50 to 100 nM |
| CN(CCCO[C@H]1C[C@H](Nc2cccc3c2C(=O)N(C2CCC(=O)NC2=O)C3=O)C1)C[C@@]1(C)Cc2cc(NC(=O)c3cccc(C(F)(F)F)n3)c(N3CCOCC3)cc2O1 (stereo partly drawn) [I-256, N-((2R)-2-(((3-((1r,3R)-3-((2-(2,6-Dioxopiperidin-3-yl)-1,3-dioxoisoindolin-4-yl)amino)cyclobutoxy)propyl)(methyl)amino)methyl)-2-methyl-6-morpholino-2,3-dihydrobenzofuran-5-yl)-6-(trifluoromethyl)picolinamide] | 500 to 1000 nM |
| CN(C[C@H]1CC[C@H](n2cc3cc(NC(=O)c4cccc(C(C)(C)F)n4)c(C(C)(C)O)cc3n2)CC1)[C@H]1CC[C@H](CNc2cccc3c2C(=O)N(C2CCC(=O)NC2=O)C3=O)CC1 (some centres unmarked) [I-58] | 50 to 100 nM |
| CC(C)(O)c1cc2nn([C@H]3CC[C@H](CN4CCC5(CC4)CC(CNc4cccc6c4C(=O)N(C4CCC(=O)NC4=O)C6=O)C5)CC3)cc2cc1NC(=O)c1cccc(C(F)(F)F)n1 (some centres unmarked) [I-42] | < 50 nM |
| CN(CCCO[C@H]1C[C@H](Nc2cccc3c2C(=O)N(C2CCC(=O)NC2=O)C3=O)C1)C[C@H]1CC[C@H](n2cc3cc(NC(=O)Cc4cccc(C(F)(F)F)n4)c(C(C)(C)O)cc3n2)CC1 (some centres unmarked) [I-70] | 500 to 1000 nM |

Other lines, results leading:

| DC50 | SMILES |
| --- | --- |
| 50 to 100 nM | COc1cc2nn([C@H]3CC[C@H](CN4CCC(O[C@H]5CC[C@H](CNc6cccc7c6C(=O)N(C6CCC(=O)NC6=O)C7=O)CC5)CC4)CC3)cc2cc1NC(=O)c1cccc(C(C)(C)F)n1 (some centres unmarked) [I-311] |
| 50 to 100 nM | CC(C)(O)c1cc2nc([C@H]3CC[C@H](CN4CCC5(CC4)CC(Nc4cccc6c4C(=O)N(C4CCC(=O)NC4=O)C6=O)C5)CC3)oc2cc1NC(=O)c1cccc(C(F)(F)F)n1 (some centres unmarked) [I-183] |
| 50 to 100 nM | COc1cc2nn([C@H]3CC[C@H](CN4CCC5(CC4)CCN(c4cccc6c4C(=O)N(C4CCC(=O)NC4=O)C6=O)CC5)CC3)cc2cc1NC(=O)c1cccc(C(F)(F)F)n1 (some centres unmarked) [I-220] |
| < 50 nM | CN(CCCO[C@H]1C[C@H](Nc2cccc3c2C(=O)N(C2CCC(=O)NC2=O)C3=O)C1)C[C@H]1CC[C@H](n2cc3cc(NC(=O)c4coc(-c5ccnc(NCC6CC6)c5)n4)c(C(C)(C)O)cc3n2)CC1 (some centres unmarked) [I-221] |
| 100 to 500 nM | COc1cc2nn([C@H]3CC[C@H](CN4CCC5(CC4)CC(CCNc4cccc6c4C(=O)N(C4CCC(=O)NC4=O)C6=O)C5)CC3)cc2cc1NC(=O)c1nc(C(F)(F)F)cs1 (some centres unmarked) [I-208] |
| < 50 nM | CN(C[C@H]1CC[C@H](n2cc3cc(NC(=O)c4cccc(C(F)(F)F)n4)c(C(C)(C)O)cc3n2)CC1)C1CCC2(CC1)CC(Nc1cccc3c1C(=O)N(C1CCC(=O)NC1=O)C3=O)C2 (some centres unmarked) [I-238] |
| < 50 nM | CC(C)(O)c1cc2nn([C@H]3CC[C@H](CN4CCC5(CC4)CC(Nc4cccc6c4C(=O)N(C4CCC(=O)NC4=O)C6=O)C5)CC3)cc2cc1NC(=O)c1cccc(C(F)(F)F)n1 (some centres unmarked) [I-313] |
| 50 to 100 nM | CC(C)Oc1cc2nn([C@H]3CC[C@H](CN4CCC5(CC4)CC(Nc4cccc6c4C(=O)N(C4CCC(=O)NC4=O)C6=O)C5)CC3)cc2cc1NC(=O)c1cccc(C(F)(F)F)n1 (some centres unmarked) [I-202] |
